# Reference: PubChem BioAssay AID602464 (Sanford-Burnham Center for Chemical Genomics, 2012)
# Activity calls are given as the source filed them. No stated cut-off is given here; in the data, active means IC50 below about 20 µM; inactive means the rest.
# Test system: Gli-responsive luciferase reporter cells, SUFU pathway antagonism
# Assay: Gli-SUFU pathway antagonists, dose response, cell-based, luciferase luminescence, uHTS hits (AID 602464)
row,SMILES,IC50
1,CN1/C(=C\C(=O)COC(=O)CNC(=O)c2ccc3ccccc3c2)C(C)(C)c2ccccc21,9.73 µM
2,Clc1ccc(-c2cn(-c3ccc(Cl)cc3)c3[n+]2CCCCC3)cc1,6.44 µM
3,c1ccc(-c2c[n+]3c(n2-c2ccccc2)SCC3)cc1,9.72 µM
4,C(#Cc1ccccc1)C[N+]1(CC#Cc2cccc3ccccc23)CCCC1,3.6 µM
5,O=C(Nc1ccccc1)C1=C[C@H](C2CCCCC2)C[C@H](OCCCCO)O1,0.666 µM
6,Nc1nc2ccccc2n1/N=C/c1ccc([N+](=O)[O-])s1,6.42 µM
7,O=C(N[C@@H]1C/C=C\C[C@H](CC(=O)N(CCO)Cc2ccccc2)C(=O)N[C@@H](Cc2c[nH]c3ccccc23)COC1=O)OCC1c2ccccc2-c2ccccc21,10.9 µM
8,CC[N+](CC)(CC#Cc1ccccc1)CC#Cc1ccccc1,4.37 µM
9,COc1ccc(Nc2nc(N3CCOCC3)nc(N3CCOCC3)n2)c(OC)c1,> 20 µM (inactive)
10,Cc1ccc(NC(=O)COc2ccccc2C(N)=O)cc1S(=O)(=O)N1CCCCCC1,12.3 µM
11,O=C(c1cnc(N2CCN(c3ccccn3)CC2)c2ccccc12)N1CCN(c2cccc(Cl)c2)CC1,11.4 µM
12,O=C(Cc1ccc(Cl)cc1Cl)Nc1ccncc1,10.3 µM
13,O=C(Cn1cc(C(=O)c2ccco2)c2ccccc21)Nc1ccccc1F,4.27 µM
14,Cc1ccc(OCCOC(=O)c2cc(S(=O)(=O)N3CCCCC3)ccc2N2CCOCC2)cc1,> 20 µM (inactive)
15,CCc1ccccc1NC(=S)N=Nc1c(O)n(C)c2ccc(S(=O)(=O)N3CCOCC3)cc12,10.9 µM
16,COc1cc(NS(=O)(=O)c2ccc(C)cc2C)cc(OC)c1OC,6.71 µM
17,COc1ccc(-c2noc(CCCCC(=O)N3CCN(c4cc(C)ccc4C)CC3)n2)cc1,4 µM
18,CC(C)C(=O)N1CCN(c2ccccc2NC(=O)COc2ccccc2)CC1,> 20 µM (inactive)
19,CCCOc1ccc(Br)cc1CSC(=N)N,9.84 µM
20,O=C(N[C@@H]1C/C=C\C[C@@H](CC(=O)N(CCO)Cc2ccccc2)C(=O)N[C@@H](c2ccccc2)COC1=O)OCC1c2ccccc2-c2ccccc21,11.9 µM
21,CC(C)(C)c1ccc(CN2C3=NCCCN3c3ccccc32)cc1,3.83 µM
22,CC(=O)c1cn(Cc2ccccc2F)c2ccccc12,8.82 µM
23,CN1/C(=C\C=Nc2ccccc2)C(C)(C)c2ccccc21,6 µM
24,Cc1nn(C)c(C(=O)NCc2ccc(Cl)cc2)c1Cl,8.1 µM
25,CCn1c(/C=C/Nc2ccccc2)[n+](CC)c2cc(Cl)c(Cl)cc21,7.87 µM

row,SMILES,IC50
1,O=C(C[C@@H]1C/C=C\C[C@H](NC(=O)OCC2c3ccccc3-c3ccccc32)C(=O)OC[C@H]2CCCN2C1=O)N[C@H](CO)Cc1ccccc1,6.71 µM
2,CC(NC(=O)c1cc2c(=O)n3ccccc3nc2n(CC2CCCO2)c1=N)c1ccccc1 (stereo not drawn),> 20 µM (inactive)
3,CCOC(=O)CC1CCCCN1C(=O)c1cc(COc2cccc3cnccc23)on1 (stereo not drawn),4.47 µM
4,O=C(Nc1ccc(C(F)(F)F)cc1)C1CCN(S(=O)(=O)c2ccc(N3CCCC3=O)cc2)CC1,3.22 µM
5,COc1cccc(/C=C/c2ccncc2)c1OC,8.95 µM
6,Fc1ccc(-n2nnnc2-c2cnc(-c3cccs3)nc2C(F)(F)F)cc1,6.43 µM
7,CN(Cc1ccc(OC(F)F)cc1)C(=O)c1cccc(S(=O)(=O)N2CCN(Cc3ccccc3)CC2)c1,6.92 µM
8,O=C(c1ccc(C(F)(F)F)cc1)C1CCCN(Cc2ccncc2)C1 (stereo not drawn),5.26 µM
9,CC[N+]1=C(C)C(C)(C)c2cc(C)ccc21,2.06 µM
10,Cc1c(C(C)C)c(=O)n(-c2ccc(S(=O)(=O)NC3CCCCC3)cc2)n1C,4.15 µM
11,NC(=O)c1c(-c2ccc(Cl)cc2Cl)csc1NC(=O)Cc1ccccc1,7.97 µM
12,CCOC(=O)N1CCN(C(=O)c2cc(COc3ccc4ncccc4c3)on2)CC1,6.71 µM
13,COc1ccccc1CCNC(=O)c1cc(-c2ccncc2)nc2ccc(Br)cc12,> 20 µM (inactive)
14,Cc1nc2ccccc2c2c1CC(C(C)(Cl)Br)O2 (stereo not drawn),5.82 µM
15,CC1Sc2n(c3ccccc3[n+]2C)N=C1c1ccccc1 (stereo not drawn),4.71 µM
16,CC(=O)c1ccc(-n2cc(-c3ccc(C(C)(C)C)cc3)[n+]3c2SCCC3)cc1,9.87 µM
17,CN(C)CCn1c2ccccc2c2nc3ccc([N+](=O)[O-])cc3cc21,7.54 µM
18,CC(C)(C)[C@H]1COC(=O)[C@H](NC(=O)OCC2c3ccccc3-c3ccccc32)C/C=C\C[C@@H](CC(=O)N(CCO)Cc2ccccc2)C(=O)N1,11.8 µM
19,COCCNc1nc2c(c(=O)n(C)c(=O)n2C)n1Cc1cccc(C)c1,7.26 µM
20,Cc1cc(Br)c(S(=O)(=O)NCc2ccncc2)cc1C,8.04 µM
21,COc1ccc(CC(=O)Nc2cccc(S(=O)(=O)N3CCCCCC3)c2)cc1OC,7.98 µM
22,CCOC(=O)c1c(NC(=O)COc2cccc3c2CCN(C)C3=O)sc2c1CCC2,8.42 µM
23,COc1ccc(CCNc2ncnc3c2oc2ccccc23)cc1OC,2.72 µM
24,Brc1ccc(-c2csc(N3CCCCCC3)n2)cc1,1.02 µM
25,Cc1cc(C)nc(SCC(=O)Nc2ccc(N3CCOCC3)c(Cl)c2)n1,3.52 µM

row,SMILES,IC50
1,O=C(C[C@H]1C/C=C\C[C@@H](NC(=O)OCC2c3ccccc3-c3ccccc32)C(=O)O[C@@H](c2ccccc2)CNC1=O)N[C@H](CO)Cc1ccccc1,7.67 µM
2,CC(C)CC(NC(=O)CCCNC(=O)CCC(=O)OC1O[C@H]2OC3(C)CC[C@H]4[C@H](C)CCC(C1C)C24OO3)C(=O)O (stereo partly drawn),0.619 µM
3,CCOC(=O)N1CCN(C(=O)c2ccc(CSc3ccc(Cl)cc3)cc2)CC1,10.8 µM
4,Cc1ccsc1CNc1ncnc2ccc(-c3c(C)noc3C)cc12,4.5 µM
5,CC(Sc1nc2ccccc2c(=O)n1C)C(=O)N(C)C1CCCCC1 (stereo not drawn),3.99 µM
6,COc1ccc(C2=[N+](C)CCn3cccc32)c(OC)c1,10.2 µM
7,CCCCCCC[N+](CC)(CC)CCCCc1ccc(Cl)cc1,5.6 µM
8,CCOC(=O)c1c(NC(=O)C(=O)N/N=C/c2ccccc2O)sc2c1CCCCC2,4.39 µM
9,Cc1ccc(OCCN2CCN(c3ncnc4sc(C)c(C)c34)CC2)cc1,2.9 µM
10,COc1ccc(NS(=O)(=O)c2ccc(N3CCN(CCO)CC3)c([N+](=O)[O-])c2)cc1,8.77 µM
11,CCC(C)NC(=O)CCC(=O)OC1O[C@H]2OC3(C)CC[C@H]4[C@H](C)CCC(C1C)C24OO3 (stereo partly drawn),0.421 µM
12,Cc1nnsc1C(=O)NC1CCCc2c1cnn2-c1ccc(F)cc1F (stereo not drawn),8.15 µM
13,CCCCCCCNC1=CC(=O)CC(c2ccccc2)C1 (stereo not drawn),8.04 µM
14,Cc1nc2ccccc2n1Cc1ccc(Br)cc1,4.73 µM
15,Cc1nnsc1C(=O)Nc1ccc(S(=O)(=O)N2CCC(C)CC2)cc1,> 20 µM (inactive)
16,CN(Cc1ccc(OCC(O)CN2CCCCC2)cc1)Cc1ccnc2ccccc12 (stereo not drawn),8.47 µM
17,CCOc1ccc(-c2nc(CSCC(=O)NCC3CCCO3)c(C)o2)cc1 (stereo not drawn),1.47 µM
18,Cc1ccc(-c2c[n+](Cc3ccc(Cl)c(Cl)c3)c3n2CCC3)cc1,2.79 µM
19,CC[C@@H](O)C[C@H]1CCC[C@@]2(C[C@@H]3OC(=O)/C=C/[C@@](C)(O)[C@@H](O)[C@H](C)[C@@H](O)[C@H](OC4CCC(N(C)C)C(C)O4)[C@@H](O)[C@](C)(O)CCCCC/C=C/[C@@H]4CC(C)(C)O[C@@]4(O)C[C@H](O2)[C@H]3C)O1 (stereo partly drawn),< 0.00977 µM
20,C[N+]1(CC(=O)OC2CCCCCCCCCCC2)CCCC1,19.3 µM
21,Cc1nn(-c2ccc(NC(=O)c3ccncc3)cc2)c(C)c1Cl,9.25 µM
22,Cc1nc2cc(N3CCN(C)CC3)c(NC(=O)Cc3ccccc3)cc2c(=O)n1Cc1ccccc1,12.3 µM
23,O=C(/C=C/c1ccco1)Nc1ccc(-c2nc3ccccc3[nH]2)cc1,1.99 µM
